“And” between values parts separate entries of the source, which are not always exact repeats. Identical values can stand only once. Like-named read-outs stand apart in the source and are kept apart here.

Assay [1] deals with H1N1/A/California/04/09 influenza virus. On the set-up: species or system BALB/c mice. Particulars: mouse, in vivo.
The test system of assay [2] is influenza A H5N1 Duck/MN/1525/81 virus. On the set-up: species or system BALB/c mice. Particulars: mouse, in vivo.
Assay [3] shares this test system. Particulars: mouse, in vivo; cited from earlier work.
The subject of assay [4] is cytokine and chemokine levels in lungs of mice infected with H5N1 influenza virus. On the set-up: species or system BALB/c mice. Particulars: mouse, in vivo.
The test system of a further assay is H5N1 influenza virus. On the set-up: species or system BALB/c mice. The conditions noted are these: mouse, in vivo.
The test system of assay [5] is H1N1/A/California/04/09 influenza virus. The assay is described as follows: Body weight of mice in lethal H1N1 influenza infection. It is filed as in vivo, BALB/c mice. Particulars: FIG. 3A, 3B.
Assay [6] has as its system inflammatory cytokines IL2, IFN-γ, TNF-α. Particulars: reference [9]; cited from earlier work.

Regarding `CCOC(=O)C1=C[C@@H](OC(CC)CC)[C@H](NC(C)=O)[C@@H](N)C1` [Oseltamivir, reference compound], the survival is 30% in assay [1]; 70% and 50% in assay [2]. Further, the “survival routinely yielded by this Oseltamivir dose” value in assay [3] was 10-30%.
Take “(D-Ala)-SPMLVAYD-(D-Ala) (XSPMLVAYDX; D-Ala at both termini; (D-A)-p2TA-(D-A); (1)..(1) X equals to D-Ala; (10)..(10) X equals to D-Ala)”: the protection entry in assay [1] is on record as “did not prove protective”. In assay [4], the “IFN-γ level in lungs” value was “significantly reduce”, the “IL-1α level in lungs” value is listed as “significantly reduce”, the “IL-1β level in lungs” value is “significantly reduce” and the “IL-6 level in lungs” value is “significantly reduce”. In addition, in assay [4], the “IL-10 level in lungs” value is on record as “did not significantly reduce” and the “monocyte chemoattractant protein-1 (MCP-1) level in lungs” value was “significantly reduce”. In addition, in assay [2], the “prolongation of survival over untreated control” value is reported as “moderate, dose-dependent prolongation of survival” and the protection entry was “no protection”. In assay [2] (ip), the effect on death entry was “delayed death” and the survival was 30%. Besides, in the assay on H5N1 influenza virus, the “arterial oxygen saturation level” value is given as “significantly improved” and the “oxygen saturation (lung function)” value was “significant improvement in lung function”. For the same compound, the “recovery from infection-induced weight loss” value in assay [5] (dose-dependent, after day 8) is listed as “partial recovery from infection-induced weight loss”. In assay [5] (p2TA 10 μg per mouse, Ribavirin 75 mg/kg i.p.), the “weight gain by day 17” value was around 20%.
With HKGLDSAV [p3TA], the “biological activity compared with p2TA” value in assay [6] is given as “biological activity similar to that of p2TA”.
In the case of SNGTIIHVK [p5TA], the “biological activity compared with p2TA” value in assay [6] is “biological activity similar to that of p2TA”.
On to YVNQTDIY [p4TA], for which the “biological activity compared with p2TA” value in assay [6] is on record as “biological activity similar to that of p2TA”.

Source of the values: patent US11304989B2, “Peptides for use in the treatment of viral infections” (priority 2017, dated 2022).
